The NIST ThermoML archive (doi:10.1021/acs.jced.7b00429)

Assay: xn = mol fraction of the nth substance listed
Conditions: 100 kPa, Liquid; for viscosity: Falling or rolling sphere viscometry; for speed of sound: Frequency=3 MHz, Single path-length method; for mass density: Vibrating tube method

C[S+](C)[O-] [dimethyl sulfoxide] + CC#N
Conditions | mass density [kg/m3] | speed of sound [m/s] | viscosity [mPa·s]
298.15 K, x1 = 0.0995 | 820.43 | 1299.5 | 0.42
298.15 K, x1 = 0.2061 | 862.88 | 1322.6 | 0.52
298.15 K, x1 = 0.2936 | 896.29 | 1346.2 | 0.57
298.15 K, x1 = 0.4055 | 935.15 | 1372 | 0.72
298.15 K, x1 = 0.5051 | 966.82 | 1395.1 | 0.86
298.15 K, x1 = 0.6001 | 994.77 | 1415.8 | 1.06
298.15 K, x1 = 0.7006 | 1022.53 | 1439.2 | 1.27
298.15 K, x1 = 0.8072 | 1050.32 | 1460.8 | 1.54
298.15 K, x1 = 0.8947 | 1071.95 | 1480.9 | 1.76
298.15 K, x1 = 1 | 1095.62 | 1490.5 | 2.03
303.15 K, x1 = 0.0995 | 815.06 | 1280.1 | 0.4
303.15 K, x1 = 0.2061 | 857.6 | 1303.8 | 0.49
303.15 K, x1 = 0.2936 | 891.05 | 1327.8 | 0.53
303.15 K, x1 = 0.4055 | 929.99 | 1354.1 | 0.67
303.15 K, x1 = 0.5051 | 961.71 | 1377.5 | 0.81
303.15 K, x1 = 0.6001 | 989.72 | 1398.5 | 0.97
303.15 K, x1 = 0.7006 | 1017.55 | 1422.2 | 1.17
303.15 K, x1 = 0.8072 | 1045.34 | 1443.9 | 1.42
303.15 K, x1 = 0.8947 | 1066.98 | 1464 | 1.6
303.15 K, x1 = 1 | 1090.62 | 1473.6 | 1.84
308.15 K, x1 = 0.0995 | 809.67 | 1260.6 | 0.39
308.15 K, x1 = 0.2061 | 852.28 | 1285 | 0.46
308.15 K, x1 = 0.2936 | 885.81 | 1309.9 | 0.52
308.15 K, x1 = 0.4055 | 924.82 | 1336.2 | 0.64
308.15 K, x1 = 0.5051 | 956.58 | 1360 | 0.75
308.15 K, x1 = 0.6001 | 984.67 | 1381.3 | 0.91
308.15 K, x1 = 0.7006 | 1012.57 | 1405.2 | 1.08
308.15 K, x1 = 0.8072 | 1040.36 | 1427 | 1.29
308.15 K, x1 = 0.8947 | 1062.01 | 1447.2 | 1.47
308.15 K, x1 = 1 | 1085.61 | 1456.8 | 1.67
313.15 K, x1 = 0.0995 | 804.26 | 1241.2 | 0.37
313.15 K, x1 = 0.2061 | 846.95 | 1266.1 | 0.44
313.15 K, x1 = 0.2936 | 880.52 | 1291 | 0.49
313.15 K, x1 = 0.4055 | 919.62 | 1318.8 | 0.6
313.15 K, x1 = 0.5051 | 951.43 | 1342.5 | 0.71
313.15 K, x1 = 0.6001 | 979.59 | 1364.1 | 0.85
313.15 K, x1 = 0.7006 | 1007.58 | 1388 | 1
313.15 K, x1 = 0.8072 | 1035.36 | 1410.3 | 1.19
313.15 K, x1 = 0.8947 | 1057.03 | 1431 | 1.35
313.15 K, x1 = 1 | 1080.6 | 1440 | 1.53
318.15 K, x1 = 0.0995 | 798.81 | 1221.8 | 0.35
318.15 K, x1 = 0.2061 | 841.59 | 1247.4 | 0.42
318.15 K, x1 = 0.2936 | 875.23 | 1272.7 | 0.47
318.15 K, x1 = 0.4055 | 914.41 | 1300.5 | 0.57
318.15 K, x1 = 0.5051 | 946.27 | 1325 | 0.67
318.15 K, x1 = 0.6001 | 974.52 | 1346.9 | 0.79
318.15 K, x1 = 0.7006 | 1002.73 | 1371.2 | 0.94
318.15 K, x1 = 0.8072 | 1030.38 | 1393.5 | 1.1
318.15 K, x1 = 0.8947 | 1052.04 | 1413.8 | 1.24
318.15 K, x1 = 1 | 1075.6 | 1423.3 | 1.41
323.15 K, x1 = 0.0995 | 793.34 | 1202.4 | 0.34
323.15 K, x1 = 0.2061 | 836.19 | 1228.6 | 0.4
323.15 K, x1 = 0.2936 | 869.91 | 1254.3 | 0.45
323.15 K, x1 = 0.4055 | 909.18 | 1282.7 | 0.54
323.15 K, x1 = 0.5051 | 941.1 | 1307.6 | 0.63
323.15 K, x1 = 0.6001 | 969.42 | 1329.7 | 0.75
323.15 K, x1 = 0.7006 | 997.71 | 1354.2 | 0.87
323.15 K, x1 = 0.8072 | 1025.37 | 1376.8 | 1.03
323.15 K, x1 = 0.8947 | 1047.05 | 1397.2 | 1.15
323.15 K, x1 = 1 | 1070.66 | 1406.7 | 1.3
